Patent publication US20240024317A1, “CANCER TREATMENT USING BOSENTAN IN COMBINATION WITH A CHECKPOINT INHIBITOR” (Materia Therapeutics Inc., priority 2020, published 2024)

Tests used:
Format in all cases: in vivo, mice
E0771 tumors [1] = assay: Extracellular matrix staining (Picro Sirius red collagen, HABP immunofluorescence)
Procedure: (§1) Mice bearing syngeneic, orthotopic triple negative breast cancer (TNBC) were treated with a range of sub-therapeutic doses of bosentan, from 0.2 mg/kg to 10 mg/kg of body weight. Orthotopic models for murine mammary tumors were generated by implantation of 5×10^4 4T1 or E0771 cancer cells in 40 μl of serum-free medium into the third mammary fat pad of 6-8-week-old BALB/c and C57BL/6 female mice, respectively. 4T1 (ATCC® CRL-2539TH) and E0771 (94A001, CH3 BioSystems) mouse breast adenocarcinoma cell lines were purchased form ATCC and CH3 BioSystems, respectively. The cells were maintained at 37° C./5% CO2 in Roswell Park Memorial Institute medium (RPMI-1640, LM-R1637, Biosera) supplemented with 10% fetal bovine serum (FBS, FB-1001H, biosera) and 1% antibiotics (A5955, Sigma). Bosentan (bosentan Hydrate (S3051, Selleckchem) was dissolved in ddH2O containing 2% DMSO (GK2245, Glentham Life Science), 30% PEG300 (S6704, Selleckchem) and 2% Tween 80 (S6702, Selleckchem)) 1 mg/kg, 5 mg/kg, 10 mg/kg or equal volume of diluent (control group) was administered by intraperitoneal injection (i.p.) once a day for 10 days, starting from once the tumor volumes reached an average size of 100 mm^3. Tumors were excised when they reached an average size of 500 mm^3. Tissue stiffness was then measured non-invasively and longitudinally using ultrasound elastography. […]

E0771 tumors [2] = assay: Ultrasound shear wave elastography of tissue stiffness, bosentan dose response; settings: 1 mg/kg daily bosentan i.p.; E0771 breast tumors
Procedure: as §1

4T1 tumors [3] = assay: as above; settings: 1 mg/kg daily bosentan i.p.; 4T1 breast tumors
Procedure: as §1

4T1 tumors [4] = assay: Tumor volume over time, bosentan pre-treatment plus anti-PD-1/anti-CTLA-4 (Example 5); settings: pre-treated with bosentan 1 mg/kg, then immunotherapy cocktail
Procedure: Syngeneic tumor models and treatment protocols. Orthotopic models for murine mammary tumors were generated by implantation of 5×10^4 4T1 cancer cells in 40 μL of serum-free medium into the third mammary fat pad of 6-8 weeks-old BALB/c mice. Mice were purchased from the Cyprus Institute of Neurology and Genetics and all in vivo experiments were conducted in accordance with the animal welfare regulations and guidelines of the Republic of Cyprus and the European Union (European Directive 2010/63/EE and Cyprus Legislation for the protection and welfare of animals, Laws 1994-2013) under a license acquired and approved (No CY/EXP/PR.L2/2018, CY/EXP/PR.L14/2019, CY/EXP/PR.L15/2019, CY/EXP/PR.L03/2020) by the Cyprus Veterinary Services committee, the Cyprus national authority for monitoring animal research for all academic institutions.
Tranilast at 200 mg/kg, bosentan at 1 mg/kg, or equal volume of diluent (control group) was administered by intraperitoneal injection (i.p.) once a day for 14 days, starting from once the tumor volumes reached an average size of 5 mm diameter. […]
Planar dimensions (x, y) of tumor were monitored every 2-3 days using a digital caliper and tumor volume was estimated from the volume of an ellipsoid and assuming that the third dimension, z, is equal to the sqrt(x y). […]

Q: Which “collagen levels (Picro Sirius red staining)” value (E0771 tumors [1]) does the source give for `COc1ccccc1Oc1c(NS(=O)(=O)c2ccc(C(C)(C)C)cc2)nc(-c2ncccn2)nc1OCCO` [bosentan, 4-tert-butyl-N-[6-(2-hydroxy-ethoxy)-5-(2-methoxy-phenoxy)-2-(pyrimidin-2-yl)pyrimidin-4-yl] benzenesulfonamide] here?
A: reduction of collagen levels

Q: And the “tissue stiffness (ultrasound elastography)” value (E0771 tumors [2])?
A: reduced tissue stiffness

Q: What about the “tissue stiffness (ultrasound elastography)” value (4T1 tumors [3]) of the same compound?
A: reduced tissue stiffness

Q: What about the “tumor volume as a function of time” value (4T1 tumors [4]) of the same compound?
A: effectively stop further tumor growth
